In PubChem BioAssay AID1963436 (Molecular Pharmacology Branch, DTP, NCI, 2024):

Tested on: OVCAR-5 complex spheroid (HUVEC/MSC), viability % T/C
Test: Anticancer human tumor OVCAR-5 cell line growth inhibition [Asc];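 further: spheroids exposed to agents for 7 days before readout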;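 on viability, T/C: 100% = DMSO vehicle-treated wells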
Conditions: for IC50: curve of first compound; for viability, T/C: stronger effect = lower value
Outline: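 Tumor cells were grown as complex spheroids with human endothelial cells (HUVEC) and human mesenchymal stem cells as stroma. Agents were tested alone and in combination, in half-log steps down from the clinical Cmax, or from 10 microM where Cmax was unknown.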

[1] = second compound 0.01 µM, first compound 0.00316 µM
[2] = second compound 0.01 µM, first compound 0.01 µM
[3] = second compound 0.01 µM, first compound 0.0316 µM
[4] = second compound 0.01 µM, first compound 0.1 µM
[5] = second compound 0.0316 µM, first compound 0.00316 µM
[6] = second compound 0.0316 µM, first compound 0.01 µM
[7] = second compound 0.0316 µM, first compound 0.0316 µM
[8] = second compound 0.0316 µM, first compound 0.1 µM
[9] = second compound 0.1 µM, first compound 0.00316 µM
[10] = second compound 0.1 µM, first compound 0.01 µM
[11] = second compound 0.1 µM, first compound 0.0316 µM
[12] = second compound 0.1 µM, first compound 0.1 µM
[13] = second compound 0.316 µM, first compound 0.00316 µM
[14] = second compound 0.316 µM, first compound 0.01 µM
[15] = second compound 0.316 µM, first compound 0.0316 µM
[16] = second compound 0.316 µM, first compound 0.1 µM
[17] = second compound 1 µM, first compound 0.00316 µM
[18] = second compound 1 µM, first compound 0.01 µM
[19] = second compound 1 µM, first compound 0.0316 µM
[20] = second compound 1 µM, first compound 0.1 µM
[21] = second compound 0.01 µM, first compound 0.316 µM
[22] = second compound 0.01 µM, first compound 1 µM
[23] = second compound 0.0316 µM, first compound 0.316 µM
[24] = second compound 0.0316 µM, first compound 1 µM
[25] = second compound 0.1 µM, first compound 0.316 µM
[26] = second compound 0.1 µM, first compound 1 µM
[27] = second compound 0.316 µM, first compound 0.316 µM
[28] = second compound 0.316 µM, first compound 1 µM
[29] = second compound 1 µM, first compound 0.316 µM
[30] = second compound 1 µM, first compound 1 µM

Compound Cc1nc(N2CCC3(CC2)COC(C)C3N)c(CO)nc1Sc1ccnc(N)c1Cl (stereo not given) + CCN1C(C(=O)NC23CCC(C(=O)O)(CC2)CC3)C(c2cccc(Cl)c2F)C2(C(=O)Nc3cc(Cl)ccc32)C12CCCCC2 has an IC50 (second compound 0.03 µM) of over 3000 nM, an IC50 (second compound 0.0949 µM) of over 3000 nM and an IC50 (second compound 0.3 µM) of over 3000 nM. It also gave an IC50 (second compound 0.949 µM) of over 3000 nM, an IC50 (second compound 3 µM) of over 3000 nM and a viability, T/C (second compound 0.03 µM, first compound 0.00949 µM) of 104%. For the same compound, the viability, T/C (second compound 0.03 µM, first compound 0.03 µM) was 101%, the viability, T/C (second compound 0.03 µM, first compound 0.0949 µM) was 79.8% and the viability, T/C (second compound 0.03 µM, first compound 0.3 µM) was 79.8%. It also gave a viability, T/C (second compound 0.03 µM, first compound 0.949 µM) of 71.4%, a viability, T/C (second compound 0.03 µM, first compound 3 µM) of 60.6% and a viability, T/C (second compound 0.0949 µM, first compound 0.00949 µM) of 108%. The viability, T/C (second compound 0.0949 µM, first compound 0.03 µM) was 97.1%, the viability, T/C (second compound 0.0949 µM, first compound 0.0949 µM) was 89.4% and the viability, T/C (second compound 0.0949 µM, first compound 0.3 µM) was 82%. The viability, T/C (second compound 0.0949 µM, first compound 0.949 µM) was 70.8%, the viability, T/C (second compound 0.0949 µM, first compound 3 µM) was 56% and the viability, T/C (second compound 0.3 µM, first compound 0.00949 µM) was 112%. It also gave a viability, T/C (second compound 0.3 µM, first compound 0.03 µM) of 105%, a viability, T/C (second compound 0.3 µM, first compound 0.0949 µM) of 86.1% and a viability, T/C (second compound 0.3 µM, first compound 0.3 µM) of 72.4%. It also gave a viability, T/C (second compound 0.3 µM, first compound 0.949 µM) of 64.2%, a viability, T/C (second compound 0.3 µM, first compound 3 µM) of 60.8% and a viability, T/C (second compound 0.949 µM, first compound 0.00949 µM) of 107%. For the same compound, the viability, T/C (second compound 0.949 µM, first compound 0.03 µM) was 105%, the viability, T/C (second compound 0.949 µM, first compound 0.0949 µM) was 96.3% and the viability, T/C (second compound 0.949 µM, first compound 0.3 µM) was 73.6%. The viability, T/C (second compound 0.949 µM, first compound 0.949 µM) was 69.5%, the viability, T/C (second compound 0.949 µM, first compound 3 µM) was 70.3% and the viability, T/C (second compound 3 µM, first compound 0.00949 µM) was 104%. The viability, T/C (second compound 3 µM, first compound 0.03 µM) was 110%, the viability, T/C (second compound 3 µM, first compound 0.0949 µM) was 99.3% and the viability, T/C (second compound 3 µM, first compound 0.3 µM) was 79%. For the same compound, the viability, T/C (second compound 3 µM, first compound 0.949 µM) was 68.4% and the viability, T/C (second compound 3 µM, first compound 3 µM) was 65.9%.

In the case of Cn1ncnc1[C@H]1c2n[nH]c(=O)c3cc(F)cc(c23)N[C@@H]1c1ccc(F)cc1 + CNC(C)C(=O)NC1CN(S(=O)(=O)c2cccc(S(=O)(=O)N3CCC4CCC(C(=O)NC(c5ccccc5)c5ccccc5)N4C(=O)C(NC(=O)C(C)NC)C3)c2)CCC2CCC(C(=O)NC(c3ccccc3)c3ccccc3)N2C1=O, the IC50 (second compound 0.01 µM) is reported as over 100 nM, the IC50 (second compound 0.0316 µM) is reported as over 100 nM and the IC50 (second compound 0.1 µM) is reported as over 100 nM. It also gave an IC50 (second compound 0.316 µM) of over 100 nM, an IC50 (second compound 1 µM) of over 100 nM and a viability, T/C (second compound 0.01 µM, first compound 0.000316 µM) of 92.5%. The viability, T/C (second compound 0.01 µM, first compound 0.001 µM) was 86.9%, the viability, T/C [1] was 85.9% and the viability, T/C [2] was 84.3%. It also gave a viability, T/C [3] of 92.3%, a viability, T/C [4] of 86.5% and a viability, T/C (second compound 0.0316 µM, first compound 0.000316 µM) of 81.8%. The viability, T/C (second compound 0.0316 µM, first compound 0.001 µM) was 77.6%, the viability, T/C [5] was 84.5% and the viability, T/C [6] was 73.2%. For the same compound, the viability, T/C [7] was 73.9%, the viability, T/C [8] was 74.6% and the viability, T/C (second compound 0.1 µM, first compound 0.000316 µM) was 78.3%. For the same compound, the viability, T/C (second compound 0.1 µM, first compound 0.001 µM) was 88.3%, the viability, T/C [9] was 81.6% and the viability, T/C [10] was 71.7%. For the same compound, the viability, T/C [11] was 73.4%, the viability, T/C [12] was 68.5% and the viability, T/C (second compound 0.316 µM, first compound 0.000316 µM) was 81.5%. For the same compound, the viability, T/C (second compound 0.316 µM, first compound 0.001 µM) was 85.8%, the viability, T/C [13] was 85.1% and the viability, T/C [14] was 71.5%. The viability, T/C [15] was 80.7%, the viability, T/C [16] was 74.8% and the viability, T/C (second compound 1 µM, first compound 0.000316 µM) was 88.3%. The viability, T/C (second compound 1 µM, first compound 0.001 µM) was 94.4%, the viability, T/C [17] was 78.6% and the viability, T/C [18] was 72.7%. For the same compound, the viability, T/C [19] was 76.1% and the viability, T/C [20] was 69.1%.

Compound O=C(c1cc(Cc2n[nH]c(=O)c3ccccc23)ccc1F)N1CCN(C(=O)C2CC2)CC1 + CNC(C)C(=O)NC1CN(S(=O)(=O)c2cccc(S(=O)(=O)N3CCC4CCC(C(=O)NC(c5ccccc5)c5ccccc5)N4C(=O)C(NC(=O)C(C)NC)C3)c2)CCC2CCC(C(=O)NC(c3ccccc3)c3ccccc3)N2C1=O has an IC50 (second compound 0.01 µM) of over 10000 nM, an IC50 (second compound 0.0316 µM) of over 10000 nM and an IC50 (second compound 0.1 µM) of over 10000 nM. The IC50 (second compound 0.316 µM) was over 10000 nM, the IC50 (second compound 1 µM) was over 10000 nM and the viability, T/C [3] was 97.3%. It also gave a viability, T/C [4] of 95.8%, a viability, T/C [21] of 87.1% and a viability, T/C [22] of 96.2%. It also gave a viability, T/C (second compound 0.01 µM, first compound 3.16 µM) of 80.5%, a viability, T/C (second compound 0.01 µM, first compound 10 µM) of 70.3% and a viability, T/C [7] of 81.4%. The viability, T/C [8] was 88.3%, the viability, T/C [23] was 81.7% and the viability, T/C [24] was 74.6%. It also gave a viability, T/C (second compound 0.0316 µM, first compound 3.16 µM) of 77.9%, a viability, T/C (second compound 0.0316 µM, first compound 10 µM) of 67.9% and a viability, T/C [11] of 84.9%. It also gave a viability, T/C [12] of 95.6%, a viability, T/C [25] of 77.9% and a viability, T/C [26] of 74.8%. The viability, T/C (second compound 0.1 µM, first compound 3.16 µM) was 75.1%, the viability, T/C (second compound 0.1 µM, first compound 10 µM) was 55.5% and the viability, T/C [15] was 77.4%. For the same compound, the viability, T/C [16] was 75.5%, the viability, T/C [27] was 80.7% and the viability, T/C [28] was 75.5%. For the same compound, the viability, T/C (second compound 0.316 µM, first compound 3.16 µM) was 67.2%, the viability, T/C (second compound 0.316 µM, first compound 10 µM) was 62% and the viability, T/C [19] was 83.5%. For the same compound, the viability, T/C [20] was 76.1%, the viability, T/C [29] was 88.9% and the viability, T/C [30] was 73.8%. It also gave a viability, T/C (second compound 1 µM, first compound 3.16 µM) of 65.3% and a viability, T/C (second compound 1 µM, first compound 10 µM) of 55.9%.

Work on O=C(c1ccc(F)c(F)c1Nc1ccc(I)cc1F)N1CC(O)([C@@H]2CCCCN2)C1 + CNC(C)C(=O)NC1CN(S(=O)(=O)c2cccc(S(=O)(=O)N3CCC4CCC(C(=O)NC(c5ccccc5)c5ccccc5)N4C(=O)C(NC(=O)C(C)NC)C3)c2)CCC2CCC(C(=O)NC(c3ccccc3)c3ccccc3)N2C1=O yielded an IC50 (second compound 0.01 µM) of 110 nM, an IC50 (second compound 0.0316 µM) of 108 nM and an IC50 (second compound 0.1 µM) of 76.2 nM. The IC50 (second compound 0.316 µM) was 49.2 nM, the IC50 (second compound 1 µM) was 72.6 nM and the viability, T/C [1] was 92.2%. It also gave a viability, T/C [2] of 80.4%, a viability, T/C [3] of 62.6% and a viability, T/C [4] of 51.2%. The viability, T/C [21] was 40.9%, the viability, T/C [22] was 31.8% and the viability, T/C [5] was 83.6%. For the same compound, the viability, T/C [6] was 78.1%, the viability, T/C [7] was 64.5% and the viability, T/C [8] was 51.4%. It also gave a viability, T/C [23] of 36.7%, a viability, T/C [24] of 25.5% and a viability, T/C [9] of 80%. It also gave a viability, T/C [10] of 79.1%, a viability, T/C [11] of 62.5% and a viability, T/C [12] of 46.5%. The viability, T/C [25] was 34.2%, the viability, T/C [26] was 30.3% and the viability, T/C [13] was 77.7%. For the same compound, the viability, T/C [14] was 67.3%, the viability, T/C [15] was 54.5% and the viability, T/C [16] was 42.8%. The viability, T/C [27] was 32.8%, the viability, T/C [28] was 26.8% and the viability, T/C [17] was 79.8%. It also gave a viability, T/C [18] of 76.9%, a viability, T/C [19] of 59.4% and a viability, T/C [20] of 47.7%. The viability, T/C [29] was 29.7% and the viability, T/C [30] was 24.1%.
